Source: article doi:10.1101/2022.11.24.517821v4 (biorxiv, 2022)
Like-named read-outs stand apart in the source and are kept apart here.

Experiments:
[1] = molecular target: T1, TAS2R14 (Homo sapiens, UniProt Q9NYV8); assay: IP-One HTRF IP1 accumulation, HEK293T with Galpha-qi5; format: cell-based
T1 sequence (Q9NYV8 1-317): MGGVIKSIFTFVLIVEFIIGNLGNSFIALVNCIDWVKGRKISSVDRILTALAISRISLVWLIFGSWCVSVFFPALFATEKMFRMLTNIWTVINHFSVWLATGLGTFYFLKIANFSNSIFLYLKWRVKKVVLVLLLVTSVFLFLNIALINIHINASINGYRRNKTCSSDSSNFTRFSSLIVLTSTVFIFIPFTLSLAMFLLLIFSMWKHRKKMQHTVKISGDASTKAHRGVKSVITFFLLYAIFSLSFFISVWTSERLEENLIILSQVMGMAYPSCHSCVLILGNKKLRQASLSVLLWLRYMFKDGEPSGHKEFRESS

[2] = molecular target: T1, TAS2R14; assay: as above; format: cell-based; details: antagonist mode, […] min pre-incubation, against […] flufenamic acid, […] °C
[3] = molecular target: T1, TAS2R14; assay: cell-based; parameters: species or system HEK293T; details: HEK-293T, read-out: Emax[%flu acid]
[4] = molecular target: T1, TAS2R14; assay: cell-based; parameters: species or system HEK293T

O=C(Nc1ccccc1C(=O)O)c1ccc(OC(F)(F)F)cc1 [LF1]
IC50 [1]: 6800 ± 3200 nM

Cc1[nH]nc(C(=O)Nc2ccc(C3CCC(F)(F)CC3)cc2)c1C(=O)O [LF14]
IC50 [1]: 22000 ± 16000 nM

O=C(c1cc(O)cc(C(F)(F)F)c1)N1CC(c2ccccc2)C1CO (centres unmarked) [LF22]
IC50 [1]: 7200 ± 3000 nM

O=C(O)c1cc(I)ccc1Nc1cccc(C(F)(F)F)c1 [LW118]
IC50 [2]: A derivative of flufenamic acid (LW118)

NS(=O)(=O)c1ccccc1Nc1cccc(OCc2ccccc2)c1 [lw19a]
Emax [3]: 100%
EC50 [4]: 65000 ± 25000 nM

COC(=O)c1ccccc1Nc1cccc(C(F)(F)F)c1 [lw50]
Emax [3]: 47 ± 23%
EC50 [4]: 5300 ± 3200 nM

O=C(O)c1ccccc1Nc1cccc(OC(F)(F)F)c1 [lw057]
Emax [3]: 101 ± 5%
EC50 [4]: 250 ± 60 nM

FC(F)(F)Oc1cccc(Nc2ccccc2-c2nnn[nH]2)c1 [lw070]
Emax [3]: 72 ± 13%
EC50 [4]: 190 ± 70 nM

FS(F)(F)(F)(F)c1cccc(Nc2ccccc2-c2nnn[nH]2)c1 [lw071]
Emax [3]: 48 ± 3%
EC50 [4]: 230 ± 90 nM

Clc1cccc(Nc2ccccc2-c2nnn[nH]2)c1 [lw072]
Emax [3]: 67 ± 6%
EC50 [4]: 170 ± 70 nM

O=C(O)c1ccccc1Nc1ccc(Cl)c(C(F)(F)F)c1 [lw076]
Emax [3]: 67 ± 9%
EC50 [4]: 200 ± 50 nM

COc1cc(Nc2ccccc2C(=O)O)cc(C(F)(F)F)c1 [lw077]
Emax [3]: 87 ± 5%
EC50 [4]: 200 ± 60 nM

FC(F)Oc1cccc(Nc2ccccc2-c2nnn[nH]2)c1 [lw083]
Emax [3]: 77 ± 5%
EC50 [4]: 200 ± 20 nM

FC(F)(F)c1cc(Nc2ccccc2-c2nnn[nH]2)ccc1Cl [lw084]
Emax [3]: 59 ± 1%
EC50 [4]: 190 ± 20 nM

COc1cc(Nc2ccccc2-c2nnn[nH]2)cc(C(F)(F)F)c1 [lw085]
Emax [3]: 98 ± 3%
EC50 [4]: 80 ± 20 nM

Cc1c(Nc2ccccc2-c2nnn[nH]2)cccc1C(F)(F)F [lw086]
Emax [3]: 70 ± 4%
EC50 [4]: 290 ± 50 nM

O=C(O)c1ccccc1Nc1ccc(N2CCOCC2)c(C(F)(F)F)c1 [lw101]
Emax [3]: 44 ± 5%
EC50 [4]: 2000 ± 490 nM

O=C(O)c1ccccc1Nc1cc(OC2CC2)cc(C(F)(F)F)c1 [lw103]
Emax [3]: 64 ± 3%
EC50 [4]: 310 ± 50 nM

O=C1COc2c(cc(C(F)(F)F)cc2Nc2ccccc2C(=O)O)N1 [lw104]
Emax [3]: 74 ± 8%
EC50 [4]: 1800 ± 180 nM

O=C(O)c1ccccc1Nc1cc(OCc2ccccc2)cc(C(F)(F)F)c1 [lw105]
Emax [3]: 66 ± 14%
EC50 [4]: 1700 ± 350 nM

Cc1ccc(C(F)(F)F)cc1Nc1ccccc1-c1nnn[nH]1 [lw113]
Emax [3]: 90 ± 5%
EC50 [4]: 310 ± 92 nM

FC(F)(F)c1cc(Nc2ccccc2-c2nnn[nH]2)ccc1N1CCOCC1 [lw114]
Emax [3]: 50 ± 7%
EC50 [4]: 190 ± 20 nM

O=C(O)c1ccccc1Nc1cc([N+](=O)O)cc(C(F)(F)F)c1 [lw119]
Emax [3]: 67 ± 8%
EC50 [4]: 190 ± 50 nM

Cc1cn(-c2cc(Nc3ccccc3C(=O)O)cc(C(F)(F)F)c2)cn1 [lw122]
Emax [3]: 51 ± 11%
EC50 [4]: 3700 ± 1200 nM

COc1cc(Nc2ccc(Cl)cc2-c2nnn[nH]2)cc(C(F)(F)F)c1 [lw128]
Emax [3]: 26 ± 4%
EC50 [4]: 580 ± 180 nM

O=[N+](O)c1cc(Nc2ccccc2-c2nnn[nH]2)cc(C(F)(F)F)c1 [lw130]
Emax [3]: 80 ± 8%
EC50 [4]: 730 ± 150 nM

COC(=O)c1cc(Nc2ccccc2C(=O)O)cc(C(F)(F)F)c1 [lw153]
Emax [3]: 73 ± 5%
EC50 [4]: 780 ± 250 nM

NC(=O)c1cc(Nc2ccccc2C(=O)O)cc(C(F)(F)F)c1 [lw154]
Emax [3]: 127 ± 13%
EC50 [4]: 7200 ± 1000 nM

O=C(O)c1ccccc1Nc1cc(N2CCOCC2)cc(C(F)(F)F)c1 [lw167]
Emax [3]: 41 ± 18%
EC50 [4]: 700 ± 400 nM

COC(=O)c1cc(Nc2ccccc2-c2nnn[nH]2)cc(C(F)(F)F)c1 [lw169]
Emax [3]: 97 ± 4%
EC50 [4]: 640 ± 140 nM

NC(=O)c1cc(Nc2ccccc2-c2nnn[nH]2)cc(C(F)(F)F)c1 [lw183]
Emax [3]: 86 ± 8%
EC50 [4]: 6000 ± 1300 nM

FC(F)(F)c1cc(Nc2ccccc2-c2nnn[nH]2)cc(OC2CC2)c1 [lw190]
Emax [3]: 68 ± 4%
EC50 [4]: 430 ± 75 nM

Cc1cc(Nc2ccccc2-c2nnn[nH]2)cc(C(F)(F)F)c1 [lw201]
Emax [3]: 81 ± 7%
EC50 [4]: 590 ± 250 nM

O=C(O)c1cc([N+](=O)[O-])ccc1Nc1cccc(C(F)(F)F)c1 [lw205]
Emax [3]: 82 ± 4%
EC50 [4]: 270 ± 75 nM

NC(=O)c1ccccc1Nc1cccc(C(F)(F)F)c1 [lw208]
Emax [3]: 34 ± 4%
EC50 [4]: 11000 ± 750 nM

O=Cc1ccc(Cl)cc1Nc1ccccc1C(=O)O [lw231]
Emax [3]: 97 ± 7%
EC50 [4]: 3300 ± 460 nM

COC(=O)c1cccc(C(=O)O)c1Nc1cccc(C(F)(F)F)c1 [lw253]
Emax [3]: 42 ± 4%
EC50 [4]: 480 ± 110 nM

O=C(O)c1ccccc1Nc1cc(C#CC2CC2)cc(C(F)(F)F)c1 [lw271]
Emax [3]: 57 ± 7%
EC50 [4]: 460 ± 79 nM

CCCCc1cc2cccc(C(=O)O)c2n1-c1cccc(C(F)(F)F)c1 [lw273]
Emax [3]: 62 ± 6%
EC50 [4]: 8300 ± 2400 nM

Oc1cc(-c2ccccc2Nc2cccc(C(F)(F)F)c2)on1 [lw306]
Emax [3]: 38 ± 4%
EC50 [4]: 3100 ± 1800 nM

CCCCC#Cc1ccc(Nc2ccccc2C(=O)O)cc1C(F)(F)F [lw308]
Emax [3]: 87 ± 7%
EC50 [4]: 4400 ± 1600 nM

CC#Cc1ccc(Nc2ccccc2C(=O)O)cc1C(F)(F)F [lw310]
Emax [3]: 89 ± 3%
EC50 [4]: 380 ± 52 nM

CCCCCNC(=O)c1ccc(Nc2ccccc2C(=O)O)cc1C(F)(F)F [lw317]
Emax [3]: 66 ± 17%
EC50 [4]: 30000 ± 19000 nM

FC(F)(F)c1cc(-c2ccccc2)nc(Nc2ccccc2-c2nnn[nH]2)n1 [lw341]
Emax [3]: 118 ± 16%
EC50 [4]: 1100 ± 320 nM

COc1ccc(Nc2ccccc2C(=O)O)cc1OCc1ccc(Cl)cc1 [lwbk19]
Emax [3]: 70 ± 11%
EC50 [4]: 1200 ± 300 nM

COc1ccc(Nc2ccccc2C(=O)O)cc1OCc1cccc(F)c1 [lwbk20]
Emax [3]: 89 ± 4%
EC50 [4]: 1400 ± 500 nM

COc1cccc(COc2cc(Nc3ccccc3C(=O)O)ccc2OC)c1 [lwbk21]
Emax [3]: 88 ± 10%
EC50 [4]: 2100 ± 1100 nM

O=C(O)c1ccccc1Nc1cc(C(F)(F)F)cc(C(F)(F)F)c1Cl [lwjk05]
Emax [3]: 84 ± 1%
EC50 [4]: 150 ± 20 nM

FC(F)(F)c1cc(Nc2ccccc2-c2nnn[nH]2)c(Cl)c(C(F)(F)F)c1 [lwjk06]
Emax [3]: 97 ± 8%
EC50 [4]: 170 ± 20 nM

Cc1ccc(Nc2ccccc2C(=O)O)cc1OCc1ccc(Cl)cc1 [lwlb17]
Emax [3]: 70 ± 10%
EC50 [4]: 1300 ± 180 nM

COc1cccc(COc2cc(Nc3ccccc3C(=O)O)ccc2C)c1 [lwlb18]
Emax [3]: 54 ± 14%
EC50 [4]: 1500 ± 500 nM

Cc1ccc(Nc2ccccc2C(=O)O)cc1OCc1cccc(F)c1 [lwlb19]
Emax [3]: 70 ± 6%
EC50 [4]: 1900 ± 940 nM

O=C(O)c1ccccc1Nc1cccc(OCc2ccc(Cl)cc2)c1 [lwmr04]
Emax [3]: 64 ± 2%
EC50 [4]: 1100 ± 180 nM

COc1cccc(COc2cccc(Nc3ccccc3C(=O)O)c2)c1 [lwmr05]
Emax [3]: 70 ± 6%
EC50 [4]: 740 ± 120 nM

O=C(O)c1ccccc1Nc1cccc(OCc2cccc(F)c2)c1 [lwmr06]
Emax [3]: 71 ± 4%
EC50 [4]: 420 ± 50 nM

FC(F)(F)c1cccc(Nc2ccccc2-c2cnoc2)c1 [lwph005]
Emax [3]: 50 ± 1%
EC50 [4]: 12000 ± 8900 nM

FC(F)(F)c1cccc(Nc2ccccc2-c2cnn[nH]2)c1 [lwtp009]
Emax [3]: 48 ± 1%
EC50 [4]: 12000 ± 1400 nM
